Read-outs that look alike come from different tables or passages of the source.
Test system: HBV
Assay: HBV-DNA antiviral assay using HepG2.117 cells (intracellular HBV DNA by qPCR)
Type: cell-based, HBV genotype D
Conditions: HBV DNA inhibition, 3 days incubation, read-out: EC50
In short: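 Read-outs: cell-lysate HBV DNA copies by qPCR (interpolated from gBlock standard) and parallel cellular ATP luminescence for CC50, both normalised to 2% DMSO controls and fitted by non-linear regression. HepG2.117 Tet-off genotype D HBV cells, induced by doxycycline removal, exposed 3 days to 4-fold serial dilutions.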

[1] = Hepatitis B virus, HepG2.117, 72 h

SMILES	EC50 [nM]	EC50 [1] [nM]
CC1Cn2c(c(C(=O)NCc3ccccc3-c3cc(N)cnn3)n(-c3ccc(OC4CC4)cc3)c2=O)CN1C(=O)c1ccc(Br)c(Cl)c1 (single isomer, unassigned) [Compound 42b]	50 to 500	
CC1Cn2c(c(C(=O)NCc3ccccc3-c3cc(N)cnn3)n(-c3ccc(OC4CC4)cc3)c2=O)CN1C(=O)c1ccc(Br)c(C(F)(F)F)c1 (single isomer, unassigned) [Compound 43a]	500 to 5000	
CC1Cn2c(c(C(=O)NCc3ccccc3-c3cc(N)cnn3)n(-c3ccc(OC4CC4)cc3)c2=O)CN1C(=O)c1ccc(Br)c(C(F)(F)F)c1 (single isomer, unassigned) [Compound 43b]	50 to 500	
CC1Cn2c(c(C(=O)NCc3ccccc3-c3c[nH]cn3)n(-c3ccc(OC4CC4)cc3)c2=O)CN1C(=O)c1ccc(Br)c(Cl)c1 (single isomer, unassigned) [Compound 44a]		50 to 500
CC1Cn2c(c(C(=O)NCc3ccccc3-c3c[nH]cn3)n(-c3ccc(OC4CC4)cc3)c2=O)CN1C(=O)c1ccc(Br)c(Cl)c1 (single isomer, unassigned) [Compound 44b]	< 50	
Cc1nnc(-c2cccc(F)c2CNC(=O)c2c3n(c(=O)n2-c2ccc(OC4CC4)cc2)CC(C)N(C(=O)c2ccc(Br)c(Cl)c2)C3)o1 (single isomer, unassigned) [Compound 45a]		50 to 500
Cc1nnc(-c2cccc(F)c2CNC(=O)c2c3n(c(=O)n2-c2ccc(OC4CC4)cc2)CC(C)N(C(=O)c2ccc(Br)c(Cl)c2)C3)o1 (single isomer, unassigned) [Compound 45b]	50 to 500	
Cc1nc2cc(-n3c(C(=O)NCc4ccccc4-c4ccncn4)c4n(c3=O)CC(C)N(C(=O)c3ccc(Br)c(Cl)c3)C4)ccc2o1 (single isomer, unassigned) [Compound 46a]		50 to 500
Cc1nc2cc(-n3c(C(=O)NCc4ccccc4-c4ccncn4)c4n(c3=O)CC(C)N(C(=O)c3ccc(Br)c(Cl)c3)C4)ccc2o1 (single isomer, unassigned) [Compound 46b]	< 50	
Cc1nnc(-c2ccccc2CNC(=O)c2c3n(c(=O)n2-c2ccc(OC4CC4)cc2)CC(C)N(C(=O)c2ccc(Br)c(C(F)(F)F)c2)C3)o1 (single isomer, unassigned) [Compound 47a]		< 50
Cc1nc2cc(-n3c(C(=O)NCc4ccccc4-c4ccncn4)c4n(c3=O)CC(C)N(C(=O)c3ccc(Br)c(C(F)(F)F)c3)C4)ccc2o1 (single isomer, unassigned) [Compound 48a]		50 to 500
Cc1nc2cc(-n3c(C(=O)NCc4ccccc4-c4ccncn4)c4n(c3=O)CC(C)N(C(=O)c3ccc(Br)c(C(F)(F)F)c3)C4)ccc2o1 (single isomer, unassigned) [Compound 48b]	< 50	
CC1Cn2c(c(C(=O)NCc3c(F)cccc3-c3cccnn3)n(-c3ccc(OC4CC4)cc3)c2=O)CN1C(=O)c1ccc(Br)c(Cl)c1 (single isomer, unassigned) [Compound 49a]		50 to 500
CC1Cn2c(c(C(=O)NCc3c(F)cccc3-c3cccnn3)n(-c3ccc(OC4CC4)cc3)c2=O)CN1C(=O)c1ccc(Br)c(Cl)c1 (single isomer, unassigned) [Compound 49b]	50 to 500	
CC1Cn2c(c(C(=O)NCc3c(F)cccc3-c3cccnn3)n(-c3ccc(OC4CC4)cc3)c2=O)CN1C(=O)c1ccc(Br)c(C(F)(F)F)c1 (single isomer, unassigned) [Compound 50a]		50 to 500
CC1Cn2c(c(C(=O)NCc3c(F)cccc3-c3cccnn3)n(-c3ccc(OC4CC4)cc3)c2=O)CN1C(=O)c1ccc(Br)c(C(F)(F)F)c1 (single isomer, unassigned) [Compound 50b]	< 50	
CC1Cn2c(c(C(=O)NCc3ccccc3-c3cc[nH]n3)n(-c3ccc(OC4CC4)cc3)c2=O)CN1C(=O)c1ccc(Br)c(Cl)c1 (single isomer, unassigned) [Compound 51a]		50 to 500
CC1Cn2c(c(C(=O)NCc3ccccc3-c3cc[nH]n3)n(-c3ccc(OC4CC4)cc3)c2=O)CN1C(=O)c1ccc(Br)c(Cl)c1 (single isomer, unassigned) [Compound 51b]	< 50	
Cc1nnc(-c2ccccc2CNC(=O)c2c3n(c(=O)n2-c2ccc4oc(C)nc4c2)CC(C)N(C(=O)c2ccc(Br)c(Cl)c2)C3)o1 (single isomer, unassigned) [Compound 53a]		50 to 500
Cc1nnc(-c2ccccc2CNC(=O)c2c3n(c(=O)n2-c2ccc4oc(C)nc4c2)CC(C)N(C(=O)c2ccc(Br)c(Cl)c2)C3)o1 (single isomer, unassigned) [Compound 53b]	50 to 500	

SMILES	EC50 [nM]	EC50 [1] [nM]
Cc1nnc(-c2ccccc2CNC(=O)c2c3n(c(=O)n2-c2ccc4oc(C)nc4c2)CC(C)N(C(=O)c2ccc(Br)c(C(F)(F)F)c2)C3)o1 (single isomer, unassigned) [Compound 54a]		< 50
Cc1nnc(-c2ccccc2CNC(=O)c2c3n(c(=O)n2-c2ccc4oc(C)nc4c2)CC(C)N(C(=O)c2ccc(Br)c(C(F)(F)F)c2)C3)o1 (single isomer, unassigned) [Compound 54b]	50 to 500	
CC1Cn2c(c(C(=O)NCc3ccccc3-c3cccnn3)n(-c3ccc(OC[C@@H](C)O)cc3)c2=O)CN1C(=O)c1ccc(Br)c(C(F)(F)F)c1 (single isomer, unassigned) [Compound 56a]	500 to 5000	
CC1Cn2c(c(C(=O)NCc3ccccc3-c3cccnn3)n(-c3ccc(OC[C@@H](C)O)cc3)c2=O)CN1C(=O)c1ccc(Br)c(C(F)(F)F)c1 (single isomer, unassigned) [Compound 56b]	50 to 500	
CC1Cn2c(c(C(=O)NCc3ccccc3-c3cccnn3)n(-c3ccc(OC[C@H](C)O)cc3)c2=O)CN1C(=O)c1ccc(Br)c(C(F)(F)F)c1 (single isomer, unassigned) [Compound 57a]		50 to 500
CC1Cn2c(c(C(=O)NCc3ccccc3-c3ncccn3)n(-c3ccc(OC4CC4)cc3)c2=O)CN1C(=O)c1ccc(Br)c(C(F)(F)F)c1 (single isomer, unassigned) [Compound 59a]		< 50
CC1Cn2c(c(C(=O)NCc3ccccc3-c3ncccn3)n(-c3ccc(OC4CC4)cc3)c2=O)CN1C(=O)c1ccc(Br)c(C(F)(F)F)c1 (single isomer, unassigned) [Compound 59b]	< 50	
CC1Cn2c(c(C(=O)NCc3ccccc3-c3ccccn3)n(-c3ccc(OC[C@@H](C)O)cc3)c2=O)CN1C(=O)c1ccc(Br)c(C(F)(F)F)c1 (single isomer, unassigned) [Compound 60a]		50 to 500
CC1Cn2c(c(C(=O)NCc3ccccc3-c3ccncn3)n(-c3ccc(OC[C@@H](O)C(F)(F)F)cc3)c2=O)CN1C(=O)c1ccc(Br)c(C(F)(F)F)c1 (single isomer, unassigned) [Compound 62a]		< 50
CC1Cn2c(c(C(=O)NCc3ccccc3-c3ncccn3)n(-c3ccc(OC[C@@H](C)O)cc3)c2=O)CN1C(=O)c1ccc(Br)c(C(F)(F)F)c1 (single isomer, unassigned) [Compound 64a]		< 50
CC1Cn2c(c(C(=O)NCc3ccccc3-c3ncccn3)n(-c3ccc(OC[C@H](C)O)cc3)c2=O)CN1C(=O)c1ccc(Br)c(C(F)(F)F)c1 (single isomer, unassigned) [Compound 65a]		< 50
CC1Cn2c(c(C(=O)NCc3ccccc3-c3ccccn3)n(-c3ccc(OC[C@@H](O)C(F)(F)F)cc3)c2=O)CN1C(=O)c1ccc(Br)c(C(F)(F)F)c1 (single isomer, unassigned) [Compound 68a]		< 50
CC1Cn2c(c(C(=O)NCc3ccccc3-c3ccccn3)n(-c3ccc(OC[C@H](O)C(F)(F)F)cc3)c2=O)CN1C(=O)c1ccc(Br)c(C(F)(F)F)c1 (single isomer, unassigned) [Compound 69a]		< 50
CCC(=O)COc1ccc(-n2c(C(=O)NCc3ccccc3-c3ncccn3)c3n(c2=O)CC(C)N(C(=O)c2ccc(Br)c(C(F)(F)F)c2)C3)cc1 (single isomer, unassigned) [Compound 70a]		50 to 500
CCC(=O)COc1ccc(-n2c(C(=O)NCc3ccccc3-c3ncccn3)c3n(c2=O)CC(C)N(C(=O)c2ccc(Br)c(C(F)(F)F)c2)C3)cc1 (single isomer, unassigned) [Compound 70b]	< 50	
CC1Cn2c(c(C(=O)NCc3ccccc3-c3ccncn3)n(-c3ccc(N4CC5(CN(C)C5)C4)cc3)c2=O)CN1C(=O)c1ccc(Br)c(C(F)(F)F)c1 (single isomer, unassigned) [Compound 73a, (6R*)-7-[4-bromo-3-(trifluoromethyl)benzoyl]-6-methyl-2-(4-{6-methyl-2,6-diazaspiro[3.3]heptan-2-yl}phenyl)-3-oxo-N-{[2-(pyrimidin-4-yl)phenyl]methyl}-5H,6H,8H-imidazo[1,5-a]pyrazine-1-carboxamide]	500 to 5000	
CC1Cn2c(c(C(=O)NCc3ccccc3-c3ccncn3)n(-c3ccc(N4CC5(CN(C)C5)C4)cc3)c2=O)CN1C(=O)c1ccc(Br)c(C(F)(F)F)c1 (single isomer, unassigned) [Compound 73b, (6S*)-7-[4-bromo-3-(trifluoromethyl)benzoyl]-6-methyl-2-(4-{6-methyl-2,6-diazaspiro[3.3]heptan-2-yl}phenyl)-3-oxo-N-{[2-(pyrimidin-4-yl)phenyl]methyl}-5H,6H,8H-imidazo[1,5-a]pyrazine-1-carboxamide]	50 to 500	
CC1Cn2c(c(C(=O)NCc3ccccc3-c3ccncn3)n(-c3ccc(OCC4(O)CC4)cc3)c2=O)CN1C(=O)c1ccc(Br)c(C(F)(F)F)c1 (single isomer, unassigned) [Compound 74b]		< 50
CC1Cn2c(c(C(=O)NCc3ccccc3-c3cccnn3)n(-c3ccc(N4CC5(CN(C)C5)C4)cc3)c2=O)CN1C(=O)c1ccc(Br)c(C(F)(F)F)c1 (single isomer, unassigned) [Compound 76a]		500 to 5000
CC1Cn2c(c(C(=O)NCc3ccccc3-c3cccnn3)n(-c3ccc(N4CC5(CN(C)C5)C4)cc3)c2=O)CN1C(=O)c1ccc(Br)c(C(F)(F)F)c1 (single isomer, unassigned) [Compound 76b]	500 to 5000	

— patent US11845752B2, “Substituted imidazo[1,5-a]pyrazines for the treatment of hepatitis B” (ALIGOS THERAPEUTICS, INC., priority 2020, dated 2023)
